# Results: patent US20070232590A1, “3-Cylcoalkylbenzazepines as Histamine H3 Antagonists” (GLAXO GROUP LIMITED, priority 2004, published 2007)
# How the values were obtained:
# histamine H3 receptor [1] = target: T1, histamine H3 receptor (Homo sapiens, UniProt Q9Y5N1); experiment: Histamine H3 functional antagonist assay (method A), [35S]-GTPγS SPA on membranes; format: biochemical; conditions: functional pKi, membrane from cultured H3 cells (CHO K1), histamine at EC80, averages of a number of experiments, read-out: Antagonism (fpKi) (converted)
# T1 construct: expressed in transfected cells; host or cells: CHO K1 cells carrying pSwitch, transfected with pGeneH3 and induced with mifepristone; clone 3H3; membrane preparation
# Excerpt: (§1) A membrane preparation containing histamine H3 receptors may be prepared in accordance with the following procedures:
# (§2) (i) Generation of Histamine H3 Cell Line
# (§3) DNA encoding the human histamine H3 gene (Huvar, A. et al. (1999) Mol. Pharmacol. 55(6), 1101-1107) was cloned into a holding vector, pCDNA3.1 TOPO (InVitrogen) and its cDNA was isolated from this vector by restriction digestion of plasmid DNA with the enzymes BamH1 and Not-1 and ligated into the inducible expression vector pGene (InVitrogen) digested with the same enzymes. The GeneSwitch™ system (a system where in transgene expression is switched off in the absence of an inducer and switched on in the presence of an inducer) was performed as described in U.S. Pat. Nos. 5,364,791; 5,874,534; and 5,935,934. Ligated DNA was transformed into competent DH5α E. coli host bacterial cells and plated onto Luria Broth (LB) agar containing Zeocin™ (an antibiotic which allows the selection of cells expressing the sh ble gene which is present on pGene and pSwitch) at 50 μg ml^−1. Colonies containing the re-ligated plasmid were identified by restriction analysis. DNA for transfection into mammalian cells was prepared from 250 ml cultures of the host bacterium containing the pGeneH3 plasmid and isolated using a DNA preparation kit (Qiagen Midi-Prep) as per manufacturers guidelines (Qiagen).
# CHO K1 cells previously transfected with the pSwitch regulatory plasmid (InVitrogen) were seeded at 2×10e6 cells per T75 flask in Complete Medium, containing Hams F12 (GIBCOBRL, Life Technologies) medium supplemented with 10% v/v dialysed foetal bovine serum, L-glutamine, and hygromycin (100 μg ml^−1), 24 hours prior to use. Plasmid DNA was transfected into the cells using Lipofectamine plus according to the manufacturers guidelines (InVitrogen). 48 hours post transfection cells were placed into complete medium supplemented with 500 μg ml^−1 Zeocin™.
# 10-14 days post selection 10 nM Mifepristone (InVitrogen), was added to the culture medium to induce the expression of the receptor. 18 hours post induction cells were detached from the flask using ethylenediamine tetra-acetic acid (EDTA; 1:5000; InVitrogen), following several washes with phosphate buffered saline pH 7.4 and resuspended in Sorting Medium containing Minimum Essential Medium (MEM), without phenol red, and supplemented with Earles salts and 3% Foetal Clone II (Hyclone). Approximately 1×10e7 cells were examined for receptor expression by staining with a rabbit polyclonal antibody, 4a, raised against the N-terminal domain of the histamine H3 receptor, incubated on ice for 60 minutes, followed by two washes in sorting medium. Receptor bound antibody was detected by incubation of the cells for 60 minutes on ice with a goat anti rabbit antibody, conjugated with Alexa 488 fluorescence marker (Molecular Probes). Following two further washes with Sorting Medium, cells were filtered through a 50 μm Filcon™ (BD Biosciences) and then analysed on a FACS Vantage SE Flow Cytometer fitted with an Automatic Cell Deposition Unit. Control cells were non-induced cells treated in a similar manner. Positively stained cells were sorted as single cells into 96-well plates, containing Complete Medium containing 500 μg ml^−1 Zeocin™ and allowed to expand before reanalysis for receptor expression via antibody and ligand binding studies. One clone, 3H3, was selected for membrane preparation.
# (ii) Membrane Preparation from Cultured Cells
# All steps of the protocol are carried out at 4° C. and with pre-cooled reagents. The cell pellet is resuspended in 10 volumes of homogenisation buffer (50 mM N-2-hydroxyethylpiperazine-N′-2-ethanesulfonic acid (HEPES), 1 mM ethylenediamine tetra-acetic acid (EDTA), pH 7.4 with KOH, supplemented with 10e-6M leupeptin (acetyl-leucyl-leucyl-arginal; Sigma L2884), 25 μg/ml bacitracin (Sigma B0125), 1 mM phenylmethylsulfonyl fluoride (PMSF) and 2×10 e-6M pepstain A (Sigma)). […]
# histamine H3 receptor [2] = target: T1, histamine H3 receptor; experiment: Histamine H3 functional antagonist assay (method B), [35S]-GTPγS SPA on membranes; format: biochemical; conditions: functional pKi, membrane from cultured H3 cells (CHO K1), histamine at EC80, averages of a number of experiments, read-out: Antagonism (fpKi) (converted)
# Excerpt: as §1, §2
# as §3, with “(Qiagen). […]” for “(Qiagen).”
# 10-14 days post selection 10 nM Mifepristone (InVitrogen), was added to the culture medium to induce the expression of the receptor. […] Receptor bound antibody was detected by incubation of the cells for 60 minutes on ice with a goat anti rabbit antibody, conjugated with Alexa 488 fluorescence marker (Molecular Probes). Following two further washes with Sorting Medium, cells were filtered through a 50 μm Filcon™ (BD Biosciences) and then analysed on a FACS Vantage SE Flow Cytometer fitted with an Automatic Cell Deposition Unit. […]
# T1 sequence (Q9Y5N1 whole entry): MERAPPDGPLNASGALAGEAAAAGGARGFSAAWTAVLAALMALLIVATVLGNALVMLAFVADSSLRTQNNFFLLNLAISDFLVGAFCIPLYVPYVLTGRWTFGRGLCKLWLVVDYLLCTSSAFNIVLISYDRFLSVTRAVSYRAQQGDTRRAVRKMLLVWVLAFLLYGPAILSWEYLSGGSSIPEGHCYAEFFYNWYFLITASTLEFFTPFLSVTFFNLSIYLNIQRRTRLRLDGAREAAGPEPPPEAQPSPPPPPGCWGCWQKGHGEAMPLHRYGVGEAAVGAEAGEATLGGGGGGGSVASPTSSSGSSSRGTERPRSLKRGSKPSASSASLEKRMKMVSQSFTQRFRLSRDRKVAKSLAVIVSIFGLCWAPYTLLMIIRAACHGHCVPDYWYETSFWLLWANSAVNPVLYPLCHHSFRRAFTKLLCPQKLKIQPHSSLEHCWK
Ki (histamine H3 receptor [1]) [pM],Ki (histamine H3 receptor [2]) [pM],Compound
79.4,158,"O=C1CCCN1c1ccc(Oc2ccc3c(c2)CCN(C2CCCC2)CC3)nc1 [Compound 1, 1-{6-[(3-Cyclopentyl-2,3,4,5-tetrahydro-1H-3-benzazepin-7-yl)oxy]-3-pyridinyl}-2-pyrrolidinone]"
79.4,158,"O=C1CCCN1c1cnc(Oc2ccc3c(c2)CCN(C2CCCC2)CC3)cn1 [Compound 2, 1-{5-[(3-Cyclopentyl-2,3,4,5-tetrahydro-1H-3-benzazepin-7-yl)oxy]-2-pyrazinyl}-2-pyrrolidinone]"
50.1,158,"CN1CCN(c2ccc(Oc3ccc4c(c3)CCN(C3CCC3)CC4)c(F)c2)C1=O [Compound 3, 1-{4-[(3-Cyclobutyl-2,3,4,5-tetrahydro-1H-3-benzazepin-7-yl)oxy]-3-fluorophenyl}-3-methyl-2-imidazolidinone]"
158,–,"O=C1CCCN1c1ccc(Oc2ccc3c(c2)CCN(C2CCC2)CC3)cc1 [Compound 4, 1-{4-[(3-Cyclobutyl-2,3,4,5-tetrahydro-1H-3-benzazepin-7-yl)oxy]phenyl}-2-pyrrolidinone]"
50.1,–,"O=C1OCCN1c1ccc(Oc2ccc3c(c2)CCN(C2CCCC2)CC3)nn1 [Compound 5, 3-{6-[(3-Cyclopentyl-2,3,4,5-tetrahydro-1H-3-benzazepin-7-yl)oxy]-3-pyridazinyl}-1,3-oxazolidin-2-one]"
126,–,"O=C1CCCN1c1ccc(Oc2ccc3c(c2)CCN(C2CCCC2)CC3)nn1 [Compound 6, 1-{6-[(3-Cyclopentyl-2,3,4,5-tetrahydro-1H-3-benzazepin-7-yl)oxy]-3-pyridazinyl}-2-pyrrolidinone]"
126,–,"Cc1noc(-c2cnc(Oc3ccc4c(c3)CCN(C3CCCC3)CC4)cn2)n1 [Compound 7, 3-Cyclopentyl-7-{[5-(3-methyl-1,2,4-oxadiazol-5-yl)-2-pyrazinyl]oxy}-2,3,4,5-tetrahydro-1H-3-benzazepine]"
100,–,"Cc1noc(-c2ccc(Oc3ccc4c(c3)CCN(C3CCC3)CC4)nc2)n1 [Compound 8, 3-Cyclobutyl-7-{[5-(3-methyl-1,2,4-oxadiazol-5-yl)-2-pyridinyl]oxy}-2,3,4,5-tetrahydro-1H-3-benzazepine]"
251,–,"Cc1noc(-c2ccc(Oc3ccc4c(c3)CCN(C3CCCC3)CC4)nc2)n1 [Compound 9, 3-Cyclopentyl-7-{[5-(3-methyl-1,2,4-oxadiazol-5-yl)-2-pyridinyl]oxy}-2,3,4,5-tetrahydro-1H-3-benzazepine]"
